Experimental findings from patent US20240279278A1, “NMU RECEPTOR 2 AGONISTS” (Boehringer Ingelheim International GmbH, priority 2023, published 2024) are described below.

Residues, ends and D or L forms follow the SMILES beside them.

What all share (format): cell-based
For test [1], the target named is T1, human NMUR2 receptor (Homo sapiens, UniProt Q9GZQ4). Briefly: IP1 Gq HTRF assay, activation of human NMUR2 in buffer. The arrangement: expressed in transfected cells; host or cells: CHO-K1. Conditions: CHO-K1 cells expressing human NMUR2, stimulation buffer with 0.1% BSA; read-out: EC50 (hNMUR2) buffer. The gist of the method: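 IP-One HTRF competition (665/620 nm ratio) read after 1 h agonist exposure at 37 °C in pH 7.4 HEPES/HBSS stimulation buffer containing 50 mM LiCl, 0.1% BSA, 1% DMSO. Cells: CHO-K1 stably expressing human NMUR2 or NMUR1. EC50 by 4-parameter nonlinear regression of 8-point curves.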

Another test deals with T2, human NMUR1 receptor (Homo sapiens, UniProt Q9HB89).
T2 construct: expressed in transfected cells; host or cells: CHO-K1
T2 sequence (Q9HB89 1-426): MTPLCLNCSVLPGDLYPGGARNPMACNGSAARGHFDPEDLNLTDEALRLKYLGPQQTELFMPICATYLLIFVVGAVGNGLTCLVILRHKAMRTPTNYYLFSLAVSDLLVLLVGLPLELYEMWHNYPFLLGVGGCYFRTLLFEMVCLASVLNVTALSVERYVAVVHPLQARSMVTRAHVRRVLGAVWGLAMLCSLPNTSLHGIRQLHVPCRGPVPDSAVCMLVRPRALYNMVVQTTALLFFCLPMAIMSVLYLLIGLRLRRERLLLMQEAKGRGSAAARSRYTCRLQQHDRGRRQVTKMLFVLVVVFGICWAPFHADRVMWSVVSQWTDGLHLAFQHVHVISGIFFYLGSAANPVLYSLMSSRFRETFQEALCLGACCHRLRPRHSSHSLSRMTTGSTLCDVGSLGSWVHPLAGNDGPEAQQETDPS
Briefly: IP1 Gq HTRF assay, activation of human NMUR1 in buffer. Conditions: CHO-K1 cells expressing human NMUR1, stimulation buffer with 0.1% BSA; read-out: EC50 (hNMUR1) buffer. An excerpt:
Example 3: IP1 Gq HTRF Assay Activation of Human NMUR2 or Human NMUR1 in Buffer Application of the Homogenous Time Resolved Fluorescence (HTRF) technology optimized for Gq coupled receptors has been described in detail in the Cisbio IP-One Gq kit manual. In brief, a FRET signal (FRET: fluorescence resonance energy transfer) is generated between the donor label of an IP-One antibody (anti-IP1-Tb) and the acceptor label of a tagged IP-One (IP1-d2). Agonism of a Gq coupled receptor increases intracellular IP-One, which competes with labeled IP-One and leads to a reduction of the FRET signal. Frozen stocks of CHO-K1 cells stably expressing the human NMUR1 or NMUR2 receptor were thawed and 5000 cells were seeded in culture medium (HAM'S F12, 10% FCS) into each well of a 384-well assay plate. After seeding, cells were incubated for 24 h in a humidified incubator at 37° C. and 5% CO2. Next, cells were washed once with 50 μL of wash buffer (20 mM Hepes, 1×HBSS, pH 7.4), followed by addition of either 10 μL of stimulation buffer (20 mM Hepes, 1×HBSS, 50 mM LiCl, 0.1% BSA, pH 7.4). Peptide agonists to be tested were dissolved in 100% DMSO and pre-diluted in stimulation buffer at a suitable concentration range for an 8 pt dose-response curve. 5 μL of peptide pre-dilution were then added to each well, followed by another 5 μL of stimulation buffer to give a final concentration of 1% DMSO. Samples were subsequently incubated for 1 hour in a humidified incubator at 37° C. After addition of 5 μL each of IP1-d2 and anti-IP1-Tb, samples were incubated for another 1 hour at room temperature and FRET signals (ratio 665 nm/620 nm) were measured. EC50 values were calculated by nonlinear regression using a 4-parameter sigmoidal curve fit.

Test [2] concerns the target T1, human NMUR2 receptor. Briefly: IP1 Gq HTRF assay, activation of human NMUR2 in human plasma. Particulars: CHO-K1 cells expressing human NMUR2, 100% human plasma; read-out: EC50 (hNMUR2) human plasma. Details: expressed in transfected cells; host or cells: CHO-K1. The gist of the method:
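EC50 obtained via 4-parameter sigmoidal regression of HTRF IP-One signal (665 nm/620 nm), which falls as intracellular IP1 rises. Stimulation: 1 h, 37° C, peptides in human plasma plus 50 mM LiCl, 1% DMSO final, on NMUR2-expressing CHO-K1 cells, 8 concentrations.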
A general note: TR-FRET usually uses a lanthanide donor and a delayed reading to cut background.

T1 sequence (Q9GZQ4 whole entry): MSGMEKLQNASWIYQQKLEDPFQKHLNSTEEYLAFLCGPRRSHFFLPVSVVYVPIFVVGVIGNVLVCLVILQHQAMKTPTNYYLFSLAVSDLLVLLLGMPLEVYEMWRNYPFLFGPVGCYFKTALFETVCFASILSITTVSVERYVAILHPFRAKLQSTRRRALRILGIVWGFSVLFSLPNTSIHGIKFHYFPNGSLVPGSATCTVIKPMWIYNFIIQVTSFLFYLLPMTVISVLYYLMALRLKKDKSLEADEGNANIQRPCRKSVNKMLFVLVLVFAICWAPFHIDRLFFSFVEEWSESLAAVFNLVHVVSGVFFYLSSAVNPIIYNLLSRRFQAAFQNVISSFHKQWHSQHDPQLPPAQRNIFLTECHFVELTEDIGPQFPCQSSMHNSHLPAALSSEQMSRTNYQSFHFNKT

Usually EC50 stands for the concentration at which the effect is half-maximal. Regarding `CCCC[C@H](NC(=O)[C@H](CC(C)C)N(C)C(=O)[C@H](Cc1ccccc1)NC(=O)[C@H](Cc1ccc(O)cc1)NC(=O)CN1CCN(CCNC(=O)CN(C)C(=O)CN(C)C(=O)CN(C)C(=O)CN(C)C(=O)CN(C)C(=O)CN(C)C(=O)CN(C)C(=O)CN(C)C(=O)CN(C)C(=O)CN(C)C(=O)CN(C)C(=O)CN(C)C(=O)CN(C)C(=O)CN(C)C(=O)CN(C)C(=O)CC[C@H](NC(=O)CC[C@H](NC(=O)CC[C@H](NC(=O)CCCCCCCCCCCCCCCCCCC(=O)O)C(=O)O)C(=O)O)C(=O)O)CC1)C(=O)N[C@@H](CCCN)C(=O)NCCC(=O)N[C@@H](CCCNC(=N)N)C(=O)NCC(N)=O` [Compound 30, C20DA-gGlu3-Sar15-AEPipAc-Tyr-Phe-NMeLeu-Nle-Orn-bAla-Arg-Gly-NH2] (HELM PEPTIDE1{[O=C(O)CCCCCCCCCCCCCCCCCCC(=O)[*:2]].[gGlu].[gGlu].[gGlu].[Sar].[Sar].[Sar].[Sar].[Sar].[Sar].[Sar].[Sar].[Sar].[Sar].[Sar].[Sar].[Sar].[Sar].[Sar].[O=C(CN1CCN(CCN[*:1])CC1)[*:2]].Y.F.[meL].[Nle].[Orn].[bAla].R.G.[am]}$$$$V2.0), the EC50 is 67 nM on human NMUR2 receptor [1], above 1000 nM on human NMUR1 receptor and 725 nM at human NMUR2 receptor [2].
For `CCCC[C@H](NC(=O)[C@H](CC(C)C)N(C)C(=O)[C@H](Cc1ccccc1)NC(=O)[C@H](Cc1ccc(O)cc1)NC(=O)CN1CCN(CCNC(=O)CN(C)C(=O)CN(C)C(=O)CN(C)C(=O)CN(C)C(=O)CN(C)C(=O)CN(C)C(=O)CN(C)C(=O)CN(C)C(=O)CN(C)C(=O)CN(C)C(=O)CN(C)C(=O)CN(C)C(=O)CC[C@H](NC(=O)CC[C@H](NC(=O)CC[C@H](NC(=O)CC[C@H](NC(=O)CCCCCCCCCCCCCCCCCCC(=O)O)C(=O)O)C(=O)O)C(=O)O)C(=O)O)CC1)C(=O)N[C@@H](CCN)C(=O)N(C)[C@@H](C)C(=O)N[C@@H](CCCNC(=N)N)C(=O)NCC(N)=O` [Compound 31, C20DA-gGlu4-Sar12-AEPipAc-Tyr-Phe-NMeLeu-Nle-Dbu-NMeAla-Arg-Gly-NH2], in that order: 3.7 nM, above 1000 nM and 14.6 nM.
For `CCCC[C@H](NC(=O)[C@H](CC(C)C)N(C)C(=O)[C@H](Cc1ccccc1)NC(=O)[C@H](Cc1ccc(O)cc1)NC(=O)CN1CCN(CCNC(=O)CN(C)C(=O)CN(C)C(=O)CN(C)C(=O)CN(C)C(=O)CN(C)C(=O)CN(C)C(=O)CN(C)C(=O)CN(C)C(=O)CN(C)C(=O)CN(C)C(=O)CN(C)C(=O)CN(C)C(=O)CC[C@H](NC(=O)CC[C@H](NC(=O)CC[C@H](NC(=O)CC[C@H](NC(=O)CCCCCCCCCCCCCCCCCCC(=O)O)C(=O)O)C(=O)O)C(=O)O)C(=O)O)CC1)C(=O)N[C@@H](CCCCN)C(=O)N1CCC[C@H]1C(=O)N[C@@H](CCCNC(=N)N)C(=O)NCC(N)=O` [Compound 32, C20DA-gGlu4-Sar12-AEPipAc-Tyr-Phe-NMeLeu-Nle-Lys-Pro-Arg-Gly-NH2], in that order: 6.5 nM, 1200 nM and 31.2 nM.
For `CCCC[C@H](NC(=O)[C@H](CC(C)C)N(C)C(=O)[C@H](Cc1ccccc1)NC(=O)[C@H](Cc1ccc(O)cc1)NC(=O)CN1CCN(CCNC(=O)CN(C)C(=O)CN(C)C(=O)CN(C)C(=O)CN(C)C(=O)CN(C)C(=O)CN(C)C(=O)CN(C)C(=O)CN(C)C(=O)CN(C)C(=O)CN(C)C(=O)CN(C)C(=O)CN(C)C(=O)CN(C)C(=O)CN(C)C(=O)CN(C)C(=O)CC[C@H](NC(=O)CC[C@H](NC(=O)CC[C@H](NC(=O)CCCCCCCCCCCCCCCCCCC(=O)O)C(=O)O)C(=O)O)C(=O)O)CC1)C(=O)N[C@@H](CCCN)C(=O)N(C)[C@@H](C)C(=O)N[C@@H](CCCNC(=N)N)C(=O)NCC(N)=O` [Compound 34, C20DA-gGlu3-Sar15-AEPipAc-Tyr-Phe-NMeLeu-Nle-Orn-NMeAla-Arg-Gly-NH2] (HELM PEPTIDE1{[O=C(O)CCCCCCCCCCCCCCCCCCC(=O)[*:2]].[gGlu].[gGlu].[gGlu].[Sar].[Sar].[Sar].[Sar].[Sar].[Sar].[Sar].[Sar].[Sar].[Sar].[Sar].[Sar].[Sar].[Sar].[Sar].[O=C(CN1CCN(CCN[*:1])CC1)[*:2]].Y.F.[meL].[Nle].[Orn].[meA].R.G.[am]}$$$$V2.0), in that order: 9 nM, above 1000 nM and 24.6 nM.
